Patent EP3122861B1, “LIQUID DETERGENT COMPOSITIONS COMPRISING AN ALPHA-AMYLASE” (priority 2014, dated 2015)

Key:
[1] = Assay for measurement of free calcium ions (calcium ion selective electrode); assay type: physicochemical; conditions: pH 8.0, 49 mM EPPS buffer, 80 mM potassium chloride, 21 °C; for chelator concentrations necessary to reduce the concentration of free calcium ions from 2.0 mM to 0.10 mM: by interpolation
Method: The following assay may be used for the measurement of free calcium ions in solution, and thus for the determination of chelating agents (chelants) ability to reduce the concentration of free calcium ions (Ca2+) from e.g. 2.0 mM to 0.10 mM at pH 8.
Various amounts of chelants are added to a solution of 2.0 mM Ca2+ and the free Ca2+ concentration is determined by using a Calcium Ion Selective Electrode at fixed pH and temperature. The concentration of chelant necessary to reduce the concentration of free calcium from 2.0 mM to 0.10 mM can be determined from a plot of the free calcium concentration measured versus the concentration of chelant. In the present assay the concentration of chelant necessary to reduce the concentration of free calcium from 2.0 mM to 0.10 mM is measured at pH 8, at 21°C, in potassium chloride and 49 mM EPPS.
Electrolyte solution: 4 M potassium chloride in ultrapure water (Milli-Q water). pH 8 buffer: 50 mM EPPS (4-(2-Hydroxyethyl)piperazine-1-propanesulfonic acid) adjusted to pH 8.0 using minimum amounts of 1 N sodium hydroxide. Calcium stock solution: 25 mM Ca2+ in pH 8 buffer, made from CaCl2.2H2O. Chelant stock solution: 15 mM chelant (on a 100 % dry chelator basis) in pH 8 buffer, re-adjusted to pH 8.0 using minimum amounts of 1 M NaOH or 1 M HCl.
Calcium Ion Selective Electrode from Thermo Scientific (cat. No. 9720BNWP) calibrated against a Calcium chloride standard solution. The electrode is calibrated as described by the guidelines following the electrode.
A series of vials are prepared, each containing 4 mL of the calcium stock solution (final concentration 2.0 mM), 1 mL electrolyte solution (final concentration 80 mM potassium chloride), chelant stock solution in various amounts (0 - 45 mL) and using the pH 8 buffer for adjusting the total volume to 50 mL. The final concentration of EPPS in the assay is 49 mM. After mixing, the concentration of free Ca2+ is measured by the calcium electrode. The free calcium concentration should be determined at a sufficient number of different chelant concentrations for each chelant tested, ensuring that the data set covers the entire range from 2.0 mM free calcium ions to a value below 0.10 mM or the final chelant concentration in the assay is higher than 10.0 mM. A suitable number of data points are 8 or more. The chelant concentration required to lower the initial 2.0 mM free calcium ions to 0.10 mM is obtained from a plot of the measured free calcium ion concentration versus chelator concentration by interpolation.
The solutions are equilibrated to the desired temperature, which in the present assay is 21°C.
Chelating agents (chelants) may be ranked by their ability to reduce the concentration of free calcium ions (Ca2+) from 2.0 mM to 0.10 mM at pH 8 developed from a method described by M.K.Nagarajan et al., JAOCS, Vol. 61, no. 9 (September 1984), pp. 1475-1478. The assay described above under "Materials and Methods" for measuring of free calcium ions was used. Accordingly, the concentration of chelant necessary to reduce the water hardness from 2.0 mM to 0.10 mM was determined as described above. The experiment was carried out with the pH 8 buffer at 21 °C. Table 12.1: Concentration of free Ca2+ determined in a mixture of 2.0 mM Ca2+ and various amounts of chelating agent at pH 8.
A number of chelants were characterized using this assay, and the chelator concentrations necessary to reduce the concentration of free calcium ions from 2.0 mM to 0.10 mM at pH 8.0 in 49 mM EPPS buffer and 80 mM potassium chloride are shown below in Table 12.2. This table can thus also be used for comparing the capabilities of the chelating agents for reducing the concentration of free calcium ions. Table 12.2

[2] = Determination of log K by ITC (isothermal titration calorimetry); conditions: binding constant of chelator and calcium ions, pH 10
From the text: Chelating agents can also be characterized by the binding constant of the chelating agent (chelator) and calcium ions. This constant can be determined by ITC (isothermal titration calorimetry) as described by AD Nielsen, CC Fuglsang and […], Analytical Biochemistry Vol. 314 (2003) page 227-234 and T Wiseman, S Williston, JF Brandts and L-N Lin, Analytical Biochemistry Vol. 179 (1989) page 131-137. All glassware and plastic bottles used are washed with a 1 % (w/w) EDTA solution and subsequently rinsed thoroughly in Chelex 100 treated ultrapure water (Milli-Q water). Solutions are stored in plastic bottles and kept at 5°C until use. […] • 125 μM chelant in 20 mM HEPES, pH 8 or 125 μM chelant in 20 mM glycine, pH 10 • 4 mM CaCl2 in 20 mM HEPES, pH 8 or 4 mM CaCl2 in 20 mM glycine, pH 10 • Ultrapure water (Milli-Q water) […] All solutions are degassed by stirring under vacuum before the experiments. INSTRUMENT: MCS-ITC (MicroCal Inc., Northampton, MA, USA) The reference cell is filled with ultrapure water (Milli-Q water). The sample cell is filled with the chelant solution at the selected pH and the syringe is filled with the calcium solution at the selected pH. The solutions are equilibrated to the desired temperature, e.g. 19°C. […] The obtained signals from the ITC are then integrated using the Origin software supplied by MicroCal Inc. To obtain the binding isotherms, regression routines are made using the same software package. […] Presently preferred is the "OneSites" model which gives the best fit for most of the commonly used chelating agents, i.e. the residuals are evenly distributed around zero. […] Alternatively, the chelating agents can be characterized by the binding constant of the chelating agent (chelator) and calcium ions. This constant can be determined by ITC (isothermal titration calorimetry) as described by AD Nielsen, CC Fuglsang and […], Analytical Biochemistry Vol. 314 (2003) page 227-234 and T Wiseman, S Williston, JF Brandts and L-N Lin, Analytical Biochemistry Vol. 179 (1989) page 131-137. The procedure for the determination of log K is described in detail above under "Materials and Methods". Using this procedure for determination of log K, the following log K values for several chelating agents were determined at pH 10 (Table 12.3). Table 12.3

Row | Log K [2] | Structure (SMILES) | chelator concentration to reduce free calcium ions from 2.0 mM to 0.10 mM, Relative to citrate [1] | chelator concentrations necessary to reduce the concentration of free calcium ions from 2.0 mM to 0.10 mM [1] [mM]
1 | 7 | O=C(O)CN(CCN(CC(=O)O)CC(=O)O)CCN(CC(=O)O)CC(=O)O [DTPA, diethylenetriaminepentaacetic acid] | 0.24 | 1.87
2 | 8 | O=C(O)CN(CCN(CC(=O)O)CC(=O)O)CC(=O)O [EDTA, ethylene diamine tetraacetate] | 0.21 | 1.90

The remaining lines, values behind:

Row | Structure (SMILES) | Log K [2] | chelator concentration to reduce free calcium ions from 2.0 mM to 0.10 mM, Relative to citrate [1] | chelator concentrations necessary to reduce the concentration of free calcium ions from 2.0 mM to 0.10 mM [1] [mM]
3 | O=P(O)(O)CN(CCN(CP(=O)(O)O)CP(=O)(O)O)CCN(CP(=O)(O)O)CP(=O)(O)O [DTMPA, diethylenetriaminepenta(methylene-phosphonic acid)] |  | 0.25 | 1.17
4 | O=C(O)CN(CCOCCOCCN(CC(=O)O)CC(=O)O)CC(=O)O [EGTA, ethylene glycol tetraacetic acid] | 9 | 0.33 | 2.60
5 | C[C@@H](C(=O)O)N(CC(=O)O)CC(=O)O [MGDA, methylglycinediacetic acid or N,N'-bis(carboxymethyl)alanine] | 2.56 | 0.33 | 2.56
6 | O=C(O)CC(O)(CC(=O)O)C(=O)O [Citrate] | 3 | 1.00 | 8.36
7 | CC(O)(P(=O)(O)O)P(=O)(O)O [HEDP, 1-Hydroxyethylidene-1,1-Diphosphonic Acid] | 6 | 0.20 | 1.60
